How the values were obtained:
[1] = test system: 22AG (DNA, G4) AGGGTTAGGGTTAGGGTTAGGG; test: CD titration; settings: 100 mM K+; 10 mM lithium cacodylate pH 7.2, 20 °C, 5 µM DNA
[2] = test system: F21T (DNA, G4) GGGTTAGGGTTAGGGTTAGGG; test: FRET melting; settings: 10 mM lithium cacodylate pH 7.2, 0.2 µM DNA, 1 µM compound
[3] = test system: FKit2T (DNA, G4) GGGCGGGCGCGAGGGAGGGG; test: FRET melting; settings: 10 mM K+, 90 mM Li+; 10 mM lithium cacodylate pH 7.2; 0.2 µM DNA, 1 µM compound
[4] = test system: F21CTAT (DNA, G4) GGGCTAGGGCTAGGGCTAGGG; test: FRET melting; settings: 10 mM K+, 90 mM Li+; 10 mM lithium cacodylate pH 7.2; 0.2 µM DNA, 1 µM compound
[5] = test system: 22AG (DNA, G4) AGGGTTAGGGTTAGGGTTAGGG; test: CD titration, 260 nm, Hill1 fit; settings: 100 mM Na+; apparent; 10 mM lithium cacodylate pH 7.2, 20 °C, 5 µM DNA
[6] = test system: ds26 (DNA, duplex) CAATCGGATCGAATTCGATCCGATTG; test: G4-FID, thiazole orange displacement; settings: 10 mM lithium cacodylate pH 7.4, 20 °C, 0.25 µM DNA; up to 10 equivalents
[7] = test system: Myc22 (c-myc) (DNA, G4) TGAGGGTGGGTAGGGTGGGTAA; test: G4-FID, thiazole orange displacement; settings: 10 mM lithium cacodylate pH 7.4, 20 °C; partial displacement, up to 60%
[8] = test system: 22CTA (DNA, G4) AGGGCTAGGGCTAGGGCTAGGG; test: G4-FID, thiazole orange displacement; settings: 10 mM lithium cacodylate pH 7.4, 20 °C; partial displacement, saturates at 40–60%
[9] = test system: FMycT (DNA, G4) TTGAGGGTGGGTAGGGTGGGTAA; test: FRET melting; settings: 1 mM K+, 99 mM Li+; 10 mM lithium cacodylate pH 7.2; 0.2 µM DNA, 1 µM compound
[10] = test system: FCEB25wtT (DNA, G4) AAGGGTGGGTGTAAGTGTGGGTGGGT; test: FRET melting; settings: 1 mM K+, 99 mM Li+; 10 mM lithium cacodylate pH 7.2; 0.2 µM DNA, 1 µM compound
[11] = test system: FCEB25L111TT (DNA, G4) AAGGGTGGGTGGGTGGGT; test: FRET melting; settings: 1 mM K+, 99 mM Li+; 10 mM lithium cacodylate pH 7.2; 0.2 µM DNA, 1 µM compound
[12] = test system: FBcl2T (DNA, G4) AGGGGCGGGCGCGGGAGGAAGGGGGCGGGAGCGGGGCTG; test: FRET melting; settings: 10 mM K+, 90 mM Li+; 10 mM lithium cacodylate pH 7.2; 0.2 µM DNA, 1 µM compound

binding [1]	ΔTm ([2]; 10 mM K+, 90 mM Li+)	ΔTm ([2]; 100 mM Na+)	ΔTm [3]	ΔTm [4]	Kd [5]	binding [6]	binding [7]	binding [8]	ΔTm [9]	ΔTm [10]	ΔTm [11]	ΔTm [12]	SMILES
yes	11.5 ± 0.6 °C	13.8 ± 0.4 °C	4.1 ± 0.3 °C	5.5 ± 0.2 °C	3.6 µM	no	yes	yes	–	–	–	–	Cc1nc(-c2cccc(-c3noc(-c4cccc(-c5nc(-c6cccc(-c7noc(C)n7)n6)no5)n4)n3)n2)no1
yes	10.8 ± 0.4 °C	16.6 ± 0.8 °C	5.3 ± 0.4 °C	4.1 ± 0.1 °C	3.3 µM	no	yes	yes	3.9 ± 0.9 °C	0.9 ± 0.7 °C	0.9 ± 0.8 °C	2.9 ± 0.7 °C	Cc1nc(-c2cccc(-c3noc(-c4cccc(-c5nc(-c6cccc(-c7noc(C)n7)n6)no5)c4)n3)n2)no1

— article PMC6225118 (2018)
